Data published in patent US20190076440A1, “TREATMENT OF TISSUE DISORDERS” (priority 2016, published 2019).

System: Cells carrying a COL4A2 missense mutation
Assay: BIP and ATF6 expression and protein in cells carrying a COL4A2 missense mutation
Type: cell-based
Details: 50 μM CBZ, data not shown
Experimental: Cells carrying a COL4A2 missense mutation (which causes haemorrhagic stroke) are treated with 50 μM CBZ. After treatment expression of BIP and ATF 6 are determined by qPCR and mRNA analysis and levels of BIP and ATF6 protein are determined by SDS-PAGE and western blot analysis as previously described herein.

NC(=O)N1c2ccccc2C=Cc2ccccc21 [CBZ, Carbamazepine]
decreased level: ATF6 expression (qPCR) | BIP expression (qPCR) | ATF6 protein level (western blot) | BIP protein level (western blot)
